Source: ChEMBL document CHEMBL1201862, “PubChem BioAssay data set” (2004)
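Protocol summary: plate cells (96-well), add compound at 5 concentrations, incubate 48 h, interpolate endpoints linearly. GI50: concentration for 50% inhibition of growth.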 Active and inactive are the calls of the source. No stated cut-off is given here; in the data, active = GI50 up to about 1.1 µM and inactive = higher.

Legend:
Test in all cases: growth of human tumour cells (NCI), 48 h
786-0 = tested on: 786-0
A498 = tested on: A498
A549 = tested on: A549
ACHN = tested on: ACHN
CAKI-1 = tested on: CAKI-1
CCRF-CEM = tested on: CCRF-CEM
COLO 205 = tested on: COLO 205
DU-145 = tested on: DU-145
EKVX = tested on: EKVX
HCC 2998 = tested on: HCC 2998
HCT-116 = tested on: HCT-116
HCT-15 = tested on: HCT-15
HL-60 = tested on: HL-60
HOP-62 = tested on: HOP-62
HOP-92 = tested on: HOP-92
HT-29 = tested on: HT-29
IGROV-1 = tested on: IGROV-1
K562 = tested on: K562
KM12 = tested on: KM12
LOX IMVI = tested on: LOX IMVI
M14 = tested on: M14
MDA-MB-231 = tested on: MDA-MB-231
MDA-MB-435 = tested on: MDA-MB-435
MOLT-4 = tested on: MOLT-4
Malme-3M = tested on: Malme-3M
NCI-H226 = tested on: NCI-H226
NCI-H23 = tested on: NCI-H23
NCI-H460 = tested on: NCI-H460
NCI-H522 = tested on: NCI-H522
NCI/ADR-RES = tested on: NCI/ADR-RES
OVCAR-3 = tested on: OVCAR-3
OVCAR-4 = tested on: OVCAR-4
OVCAR-5 = tested on: OVCAR-5
OVCAR-8 = tested on: OVCAR-8
PC-3 = tested on: PC-3
RXF 393 = tested on: RXF 393
SF-268 = tested on: SF-268
SF-295 = tested on: SF-295
SF-539 = tested on: SF-539
SK-MEL-28 = tested on: SK-MEL-28
SK-MEL-2 = tested on: SK-MEL-2
SK-MEL-5 = tested on: SK-MEL-5
SK-OV-3 = tested on: SK-OV-3
SN12C = tested on: SN12C
SNB-19 = tested on: SNB-19
SNB-75 = tested on: SNB-75
SR = tested on: SR
SW-620 = tested on: SW-620
T47D = tested on: T47D
U-251 = tested on: U-251
UACC-257 = tested on: UACC-257
UACC-62 = tested on: UACC-62
UO-31 = tested on: UO-31

## C[C@@]1(O)C2CC3CC1(c1ccccc1)CC(/C3=N/O)/C2=N\O (stereo partly drawn)
786-0
  GI50: > 100 µM (inactive)
A498
  GI50: > 100 µM (inactive)
A549
  GI50: > 100 µM (inactive)
ACHN
  GI50: > 100 µM (inactive)
CAKI-1
  GI50: > 100 µM (inactive)
CCRF-CEM
  GI50: > 100 µM (inactive)
COLO 205
  GI50: > 100 µM (inactive)
DU-145
  GI50: > 100 µM (inactive)
EKVX
  GI50: > 100 µM (inactive)
HCC 2998
  GI50: > 100 µM (inactive)
HCT-116
  GI50: > 100 µM (inactive)
HCT-15
  GI50: > 100 µM
HL-60
  GI50: > 100 µM (inactive)
HOP-62
  GI50: > 100 µM (inactive)
HOP-92
  GI50: > 100 µM (inactive)
HT-29
  GI50: > 100 µM (inactive)
IGROV-1
  GI50: > 100 µM (inactive)
K562
  GI50: > 100 µM (inactive)
KM12
  GI50: > 100 µM (inactive)
LOX IMVI
  GI50: > 100 µM (inactive)
M14
  GI50: > 100 µM (inactive)
MDA-MB-231
  GI50: > 100 µM (inactive)
MDA-MB-435
  GI50: > 100 µM (inactive)
MOLT-4
  GI50: > 100 µM (inactive)
Malme-3M
  GI50: > 100 µM (inactive)
NCI-H226
  GI50: > 100 µM (inactive)
NCI-H23
  GI50: > 100 µM (inactive)
NCI-H460
  GI50: > 100 µM (inactive)
NCI-H522
  GI50: > 100 µM (inactive)
NCI/ADR-RES
  GI50: > 100 µM (inactive)
OVCAR-3
  GI50: > 100 µM (inactive)
OVCAR-4
  GI50: > 100 µM (inactive)
OVCAR-5
  GI50: > 100 µM (inactive)
OVCAR-8
  GI50: > 100 µM (inactive)
PC-3
  GI50: > 100 µM (inactive)
RXF 393
  GI50: > 100 µM (inactive)
SF-268
  GI50: > 100 µM (inactive)
SF-295
  GI50: > 100 µM (inactive)
SF-539
  GI50: > 100 µM (inactive)
SK-MEL-28
  GI50: > 100 µM (inactive)
SK-MEL-2
  GI50: > 100 µM (inactive)
SK-MEL-5
  GI50: > 100 µM (inactive)
SK-OV-3
  GI50: > 100 µM (inactive)
SN12C
  GI50: > 100 µM (inactive)
SNB-19
  GI50: > 100 µM (inactive)
SNB-75
  GI50: > 100 µM (inactive)
SR
  GI50: > 100 µM (inactive)
SW-620
  GI50: > 100 µM (inactive)
T47D
  GI50: > 100 µM (inactive)
U-251
  GI50: > 100 µM (inactive)
UACC-257
  GI50: > 100 µM (inactive)
UACC-62
  GI50: > 100 µM (inactive)
UO-31
  GI50: > 100 µM (inactive)
